SMILES strings stand for the structures.

The first assay deals with T1, MRGPRX2 (Homo sapiens, UniProt Q96LB1).
T1 sequence (Q96LB1 1-330): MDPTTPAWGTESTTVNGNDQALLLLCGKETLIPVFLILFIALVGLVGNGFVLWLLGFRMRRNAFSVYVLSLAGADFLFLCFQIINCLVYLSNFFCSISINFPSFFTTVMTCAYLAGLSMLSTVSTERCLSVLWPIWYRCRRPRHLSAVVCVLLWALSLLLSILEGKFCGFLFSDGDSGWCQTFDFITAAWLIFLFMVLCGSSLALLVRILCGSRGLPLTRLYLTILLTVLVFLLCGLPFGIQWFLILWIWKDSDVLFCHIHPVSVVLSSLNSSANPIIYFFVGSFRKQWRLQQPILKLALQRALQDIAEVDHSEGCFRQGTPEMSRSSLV
As to the kind of experiment: MRGPRX2 reporter cell assay (NFAT-RE luciferase, Substance P stimulation). It counts as cell-based. The following applies: U2OS cells stably transfected with MRGPRX2 and NFAT-RE luciferase reporter; Substance P at EC80. Here is the method:
MRGPRX2 Reporter Cell Assays U2OS cells (ATCC, Manassas, VA) were stably transfected with MRGPRX2 expression clones (GeneCopoeia, Rockville, MD) and the pGL4.30 [luc2P/NFAT-RE/Hygro] reporter plasmid (Promega, Madison, WI). Clonal cells were maintained in Growth Media (McCoy's 5A, 10% FBS, 495 μg/ml hygromycin, 2 μg/ml puromycin, 100 units/ml penicillin, and 100 ug/ml streptomycin). The day before assay, cells were plated to white 384-well microplates at 3000 (MRGPRX2) cells/well in 10 ul Assay Media (McCoy's 5A, 2% charcoal dextran stripped FBS, 100 units/ml penicillin, and 100 ug/ml streptomycin) (Gibco, Thermo Fisher) and allowed to adhere overnight. The following day, serially diluted compound stocks were added directly to the cells (final DMSO concentration of 0.5%) and pre-incubated for 30 minutes at 37° C., 5% CO2. The final concentration of Substance P (Tocris, Minneapolis, MN, or PEPTIDE INSTITUTE, Osaka, Japan) corresponding to EC80 was added to stimulate the (MRGPRX2) cells. Cells were returned to the incubator for 6 hrs, after which 5 ul of ONE-GLO substrate (Promega) was added. Luminescence was read within 15 minutes (BioTek, Winooski, VT or infinite M1000Pro, Tecan Japan, Kanagawa, Japan). Percent inhibition for each test compound was calculated using the formula: […] where: • A=the luminescence count of the “test compound” well • B=the median luminescence count of the “Vehicle (0.5% DMSO)” wells • C═the median luminescence count of the “Vehicle (0.5% DMSO)+5 uM of substance P” wells The mean percent inhibition of each concentration of “test compound” was used to generate dose-response curves. IC50 values were calculated using a four-parameter logistic fit to the data using GraphPad Prism software. • +++: […]
A general note: Reporter assays use an easily measured gene product as a stand-in for the process of interest.
Regarding `CO[C@@H]1COc2c(-c3[nH]c4ncccc4c3-c3cn(C)nc3OC(F)F)c(C(F)F)nn2C1` [EX. 531], the half-maximal inhibitory concentration (IC50) – broadly, the point on the concentration scale where inhibition reaches its midpoint – is 2.3 nM.

Staying with this assay, now noted: U2OS cells stably transfected with MRGPRX2 and NFAT-RE luciferase reporter; Substance P at EC80; class symbols.
As for `[2H]c1cnc2[nH]c(-c3c(C)nn4c3OCCC4)c(-c3cc(OC([2H])([2H])[2H])ccc3C#N)c2c1` [EX. 216], the IC50 was under 10 nM. In turn, `CC(C)(O)CO[C@@H]1COc2c(-c3[nH]c4ncccc4c3-c3cccnc3C#N)c(C(F)F)nn2C1` [EX. 509] registered an IC50 of under 10 nM. Regarding `Cn1cc(-c2c(-c3c(C(F)F)nn4c3OC[C@@H](NS(=O)(=O)C3(C)CC3)C4)[nH]c3ncccc23)c(OC(F)F)n1` [EX. 574], the half-inhibitory concentration (IC50) was under 10 nM. Molecule `COc1ccc(C#N)c(-c2c(-c3c(C(F)F)nn4c3OC[C@H](NC(C)=O)C4)[nH]c3ncccc23)c1` [EX. 362] came in with an IC50 of under 10 nM. The same measure, in the same setting: for `N#Cc1ncccc1-c1c(-c2c(C(F)F)nn3c2OC[C@@H](O)C3)[nH]c2ncccc12` [EX. 470] the value was under 10 nM. For `FC(F)Oc1ncccc1-c1c(-c2c(C(F)F)nn3c2OCCCC3)[nH]c2ncccc12` [EX. 441], the IC50 is under 10 nM. `[2H]C([2H])([2H])Oc1ccc(C#N)c(-c2c(-c3c(C)nn4c3OCC(O)C4)[nH]c3ncccc23)c1` (stereo not drawn) [EX. 367] returned an IC50 of under 10 nM. The molecule `FC(F)Oc1ccccc1-c1c(-c2c(C(F)F)nn3c2OC[C@@H](F)C3)[nH]c2ncccc12` [EX. 444] yielded an IC50 of under 10 nM. For `Cn1cc(-c2[nH]c3ncccc3c2-c2cc(F)ccc2C#N)c(C(F)F)n1` [EX. 300], the IC50 was under 10 nM. In turn, `CO[C@@H]1COc2c(-c3[nH]c4ncccc4c3-c3cn(C)nc3OC(F)F)c(C(F)F)nn2C1` [EX. 531] returned an IC50 of under 10 nM. `N#Cc1nccnc1-c1c(-c2c(C(F)F)nn3c2OCCC3)[nH]c2ncccc12` [EX. 409] came in with a half-maximal inhibitory concentration (IC50) of 100 to 1000 nM. Molecule `Cc1cc(-c2c(-c3c(C(F)F)nn4c3OCCCC4)[nH]c3ncccc23)c(C#N)s1` [EX. 452] returned a half-maximal inhibitory concentration (IC50) of under 10 nM. `N#Cc1ccccc1-c1c(-c2csnc2C(F)F)[nH]c2ncccc12` [EX. 75] had an IC50 of under 10 nM. For the molecule `Cn1cc(-c2c(-c3c(C(F)F)nn4c3OC[C@@H](OCCO)C4)[nH]c3ncccc23)c(C#N)n1` [EX. 500], the concentration for half-maximal inhibition (IC50) is under 10 nM. For the molecule `COc1ccc(C#N)c(-c2c(-c3c(C(F)F)nn4c3OCC(NC(=O)OC(C)(C)C)C4)[nH]c3ncccc23)c1` (stereo not drawn) [EX. 257], the half-maximal inhibitory concentration (IC50) is under 10 nM. Regarding `N#Cc1ccccc1-c1c(-c2cnn3c2OCCC3)[nH]c2nccc(F)c12` [EX. 90], the half-maximal inhibitory concentration (IC50) is under 10 nM. `Cn1cc(-c2c(-c3c(C(F)F)nn4c3OC[C@@H](NC(=O)OCC(N)=O)C4)[nH]c3ncccc23)c(OC(F)F)n1` [EX. 584] displayed a concentration for half-maximal inhibition (IC50) of under 10 nM. In turn, `N#Cc1ncccc1-c1c(-c2c(C(F)F)nn3c2OC[C@@H](OCCO)C3)[nH]c2ncccc12` [EX. 508] yielded an IC50 of under 10 nM. `COC(=O)N[C@@H]1COc2c(-c3[nH]c4ncccc4c3-c3ccncc3C#N)c(C(F)F)nn2C1` [EX. 515] displayed an IC50 of under 10 nM. `C[C@@]1(O)COc2c(-c3[nH]c4ncccc4c3-c3cccnc3OC(F)F)c(C(F)F)nn2C1` [EX. 438] had an IC50 of under 10 nM. Same read-out and setting: the value for `CCNC(=O)O[C@@H]1COc2c(-c3[nH]c4ncccc4c3-c3cn(C)nc3OC(F)F)c(C(F)F)nn2C1` [EX. 539] was under 10 nM; that for `COC(=O)N[C@@H]1COc2c(-c3[nH]c4ncccc4c3-c3cccnc3C#N)c(C(F)F)nn2C1` [EX. 514] was under 10 nM. The same measure, in the same setting: the value for `O[C@@H]1COc2c(-c3[nH]c4ncccc4c3-c3cccnc3OC(F)F)c(C3CC3)nn2C1` [EX. 455] was under 10 nM.

In turn, `N#Cc1ncccc1-c1c(-c2c(C(F)F)nn3c2OC[C@@H](NC(=O)C2CC2)C3)[nH]c2ncccc12` [EX. 591] came in with an IC50 of under 10 nM.

For `Cn1cc(-c2c(-c3c(C(F)F)nn4c3OC[C@@H](NC(=O)N3CC(O)C3)C4)[nH]c3ncccc23)c(OC(F)F)n1` [EX. 569], the concentration for half-maximal inhibition (IC50) is under 10 nM. Same read-out and setting: for `FC(F)Oc1nscc1-c1c(-c2c(C(F)F)nn3c2OCCC3)[nH]c2ncccc12` [EX. 402] the value was under 10 nM; for `O[C@@H]1COc2c(-c3[nH]c4ncccc4c3-c3ccncc3OC(F)F)c(C(F)F)nn2C1` [EX. 463], under 10 nM; for `C[C@@H](O)C(=O)N[C@@H]1COc2c(-c3[nH]c4ncccc4c3-c3cn(C)nc3OC(F)F)c(C(F)F)nn2C1` [EX. 560], under 10 nM. The molecule `Cn1cc(-c2[nH]c3ncccc3c2-c2ccccc2C#N)c(C(F)(F)F)n1` [EX. 128] showed an IC50 of under 10 nM. Turning to `O[C@@H]1COc2c(-c3[nH]c4ncccc4c3-c3ccccc3OC(F)(F)F)c(C(F)F)nn2C1` [EX. 464], the IC50 was under 10 nM. Turning to `N#Cc1ccccc1-c1c(-c2ccccc2O)[nH]c2ncccc12` [EX. 122], the IC50 was under 10 nM. Regarding `O[C@@H]1COc2c(-c3[nH]c4ncccc4c3-c3ccccc3OC(F)F)c(C(F)F)nn2C1` [EX. 469], the IC50 is under 10 nM. The same measure, in the same setting: for `FC(F)Oc1ncccc1-c1c(-c2c(C(F)F)nn3c2OCCC3)[nH]c2ncccc12` [EX. 410] the value was under 10 nM; for `Cn1cc(-c2c(-c3cn(C)nc3C(F)F)[nH]c3ncccc23)c(OC(F)F)n1` [EX. 291], 10 to 100 nM; for `COc1ccsc1-c1[nH]c2ncccc2c1-c1ccccc1C#N` [EX. 53], under 10 nM.

`FC(F)c1nn2c(c1-c1[nH]c3ncccc3c1-c1cnsc1C(F)F)OCCC2` [EX. 416]: the IC50 was 10 to 100 nM. `[2H]C([2H])([2H])Oc1ccc(C#N)c(-c2c(-c3c(C)nn4c3OCC(O)C4)[nH]c3ncccc23)c1` (stereo not drawn) [EX. 199] showed an IC50 of under 10 nM. Take `Cn1cc(-c2c(-c3c(C(F)F)nn4c3OC[C@@H](NC(=O)[C@@H]3C[C@@H]3F)C4)[nH]c3ncccc23)c(OC(F)F)n1` [EX. 549]: the 50% inhibitory concentration (IC50) was under 10 nM.

`Cc1ccc(C#N)c(-c2c(-c3c[nH]nc3OC(F)F)[nH]c3ncccc23)c1` [EX. 158] showed an IC50 of under 10 nM. In turn, `N#Cc1ccccc1-c1c(-c2c(CF)nn3c2OCCC3)[nH]c2ncccc12` [EX. 271] showed a half-maximal inhibitory concentration (IC50) of under 10 nM. As to `COc1ccc(C#N)c(-c2c(-c3c(C(F)F)nn4c3OCC3(CC3)C4)[nH]c3ncccc23)c1` [EX. 183], the IC50 is under 10 nM. Molecule `Cn1cc(-c2c(-c3c(C(F)F)nn4c3OC[C@@H](NS(C)(=O)=O)C4)[nH]c3ncccc23)c(OC(F)F)n1` [EX. 526, (S)—N-(3-(3-(3-(difluoromethoxy)-1-methyl-1H-pyrazol-4-yl)-1H-pyrrolo[2,3-b]pyridin-2-yl)-2-(difluoromethyl)-6,7-dihydro-5H-pyrazolo[5,1-b] [1,3]oxazin-6-yl) methanesulfonamide] showed an IC50 of under 10 nM. As for `CC(=O)N[C@@H]1COc2c(-c3[nH]c4ncccc4c3-c3cn(C)nc3OC(F)F)c(C(F)F)nn2C1` [EX. 544], the IC50 was under 10 nM. The same measure, in the same setting: the value for `COC(=O)N[C@@H]1COc2c(-c3[nH]c4ncccc4c3-c3cccnc3OC(F)F)c(C)nn2C1` [EX. 513] was under 10 nM; that for `Cc1cc(-c2c(-c3c(C(F)F)nn4c3OC[C@@H](O)C4)[nH]c3ncccc23)c(C#N)s1` [EX. 458] was under 10 nM. In turn, `Cn1cc(-c2c(-c3c(C(F)F)nn4c3OC[C@@H](O)C4)[nH]c3ncccc23)c(C#N)n1` [EX. 491, (S)-4-(2-(2-(difluoromethyl)-6-hydroxy-6,7-dihydro-5H-pyrazolo[5,1-b] [1,3]oxazin-3-yl)-1H-pyrrolo[2,3-b]pyridin-3-yl)-1-methyl-1H-pyrazole-3-carbonitrile] yielded a half-inhibitory concentration (IC50) of under 10 nM.

Regarding `COc1ccc(C#N)c(-c2c(-c3c(C)nn4c(C)ccnc34)[nH]c3ncccc23)c1` [EX. 254], the concentration for half-maximal inhibition (IC50) is under 10 nM.

For the origin of these results see patent US20250326772A1, “MRGPRX2 ANTAGONISTS, PHARMACEUTICAL COMPOSITION INCLUDING MRGPRX2 ANTAGONIST, AND METHOD OF TREATING MRGPRX2-MEDIATED DISEASE OR DISORDER” (KYORIN PHARMACEUTICAL CO., LTD., priority 2024, published 2025).
